Data taken from the kinase profiling compilation of Christmann-Franck et al. (2016).
Values joined by “and” are separate entries in the source; they are usually repeats but may differ in a detail not shown here. Equal entries are not always repeated.

What was measured:
Experiment in all cases: radiometric filter-binding kinase assay
MAPKAPK2 (human) = MAPKAPK2 (human) (UniProt P49137); conditions: compound 100.0 µM; ATP 20 µM
DYRK1A (human) = DYRK1A (human) (UniProt Q13627); conditions: compound 100.0 µM; ATP 50 µM
[1] = target: PRKAA1 PRKAB2 PRKAG1 (human) (UniProt O43741+Q13131+P54619); conditions: compound 100.0 µM; ATP 20 µM
AURKA (human) = AURKA (human) (UniProt O14965); conditions: compound 100.0 µM; ATP 5 µM
[2] = system: RPS6KB1 (human), P23443 [T412E]; conditions: compound 100.0 µM; ATP 20 µM
MAP3K5 (human) = MAP3K5 (human) (UniProt Q99683); conditions: compound 100.0 µM; ATP 50 µM
ROCK2 (rat) = conditions: compound 100.0 µM; ATP 20 µM; accession and sequence are those of the human protein
DYRK3 (human) = DYRK3 (human) (UniProt O43781); conditions: compound 100.0 µM; ATP 5 µM
TTK (human) = TTK (human) (UniProt P33981); conditions: compound 100.0 µM; ATP 20 µM
MAP2K6 (human) = MAP2K6 (human) (UniProt P52564); conditions: compound 100.0 µM; ATP 50 µM
LCK (mouse) = conditions: compound 100.0 µM; ATP 50 µM; accession and sequence are those of the human protein
PKN2 (human) = PKN2 (human) (UniProt Q16513); conditions: compound 100.0 µM; ATP 5 µM
DYRK2 (human) = DYRK2 (human) (UniProt Q92630); conditions: compound 100.0 µM; ATP 50 µM
PRKCZ (human) = PRKCZ (human) (UniProt Q05513); conditions: compound 100.0 µM; ATP 5 µM
RPS6KA3 KD1 KD2 (human) = RPS6KA3 KD1 KD2 (human) (UniProt P51812); conditions: compound 100.0 µM; ATP 50 µM
IKBKB (human) = IKBKB (human) (UniProt O14920); conditions: compound 100.0 µM; ATP 5 µM
INSRR (human) = INSRR (human) (UniProt P14616); conditions: compound 100.0 µM; ATP 5 µM
NEK6 (human) = NEK6 (human) (UniProt Q9HC98); conditions: compound 100.0 µM; ATP 50 µM
EPHB1 (human) = EPHB1 (human) (UniProt P54762); conditions: compound 100.0 µM; ATP 20 µM
PAK4 (human) = PAK4 (human) (UniProt O96013); conditions: compound 100.0 µM; ATP 5 µM
PAK6 (human) = PAK6 (human) (UniProt Q9NQU5); conditions: compound 100.0 µM; ATP 20 µM
CHEK2 (human) = CHEK2 (human) (UniProt O96017); conditions: compound 100.0 µM; ATP 20 µM
MAP3K1 (human) = MAP3K1 (human) (UniProt Q13233); conditions: compound 100.0 µM; ATP 50 µM
MAPK15 (human) = MAPK15 (human) (UniProt Q8TD08); conditions: compound 100.0 µM; ATP 5 µM
GCK (human) = GCK (human) (UniProt Q12851); conditions: compound 100.0 µM; ATP 20 µM
GSK3B (human) = GSK3B (human) (UniProt P49841); conditions: compound 100.0 µM; ATP 5 µM
BRSK2 (human) = BRSK2 (human) (UniProt Q8IWQ3); conditions: compound 100.0 µM; ATP 50 µM
MAPK14 (human) = MAPK14 (human) (UniProt Q16539); conditions: compound 100.0 µM; ATP 50 µM
SRC (human) = SRC (human) (UniProt P12931); conditions: compound 100.0 µM; ATP 50 µM
PRKACA (human) = PRKACA (human) (UniProt P17612); conditions: compound 100.0 µM; ATP 20 µM
TBK1 (human) = TBK1 (human) (UniProt Q9UHD2); conditions: compound 100.0 µM; ATP 50 µM
MAP2K2 (human) = MAP2K2 (human) (UniProt P36507); conditions: compound 100.0 µM; ATP 5 µM
CSNK2A1 (human) = CSNK2A1 (human) (UniProt P68400); conditions: compound 100.0 µM; ATP 5 µM
ERBB4 (human) = ERBB4 (human) (UniProt Q15303); conditions: compound 100.0 µM; ATP 5 µM
CDK2 CCNA2 (human) = CDK2 CCNA2 (human) (UniProt P20248+P24941); conditions: compound 100.0 µM; ATP 20 µM
[3] = system: PAK2 (human), Q13177 [T402E]; conditions: compound 100.0 µM; ATP 20 µM
MKNK1 (human) = MKNK1 (human) (UniProt Q9BUB5); conditions: compound 100.0 µM; ATP 50 µM
CHEK1 (human) = CHEK1 (human) (UniProt O14757); conditions: compound 100.0 µM; ATP 20 µM

Chain of AURKA (human) (O14965 whole entry, looked up): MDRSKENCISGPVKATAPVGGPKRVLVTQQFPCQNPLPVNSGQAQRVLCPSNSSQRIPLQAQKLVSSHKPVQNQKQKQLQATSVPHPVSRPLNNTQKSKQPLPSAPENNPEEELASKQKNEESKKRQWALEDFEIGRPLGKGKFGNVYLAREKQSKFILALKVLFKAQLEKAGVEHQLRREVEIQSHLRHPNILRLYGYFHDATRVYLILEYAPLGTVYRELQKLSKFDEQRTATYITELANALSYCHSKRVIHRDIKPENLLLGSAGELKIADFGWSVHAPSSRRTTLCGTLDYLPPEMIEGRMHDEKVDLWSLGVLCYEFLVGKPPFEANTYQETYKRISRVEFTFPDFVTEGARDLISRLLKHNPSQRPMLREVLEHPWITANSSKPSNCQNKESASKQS
Chain of GSK3B (human) (P49841 whole entry, looked up): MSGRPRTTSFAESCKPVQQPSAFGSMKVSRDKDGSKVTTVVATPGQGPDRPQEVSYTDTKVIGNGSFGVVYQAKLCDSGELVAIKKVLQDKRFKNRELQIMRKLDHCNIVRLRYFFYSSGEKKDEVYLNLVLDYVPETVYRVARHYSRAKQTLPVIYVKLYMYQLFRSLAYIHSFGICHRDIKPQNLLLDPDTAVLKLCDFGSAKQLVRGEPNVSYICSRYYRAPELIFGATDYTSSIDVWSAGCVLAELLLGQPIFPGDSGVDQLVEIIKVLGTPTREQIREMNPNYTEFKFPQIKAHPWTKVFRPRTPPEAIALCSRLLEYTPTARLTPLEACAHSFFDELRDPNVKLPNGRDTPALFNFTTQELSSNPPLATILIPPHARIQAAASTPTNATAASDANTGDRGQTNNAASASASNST
Chain of IKBKB (human) (O14920 whole entry, looked up): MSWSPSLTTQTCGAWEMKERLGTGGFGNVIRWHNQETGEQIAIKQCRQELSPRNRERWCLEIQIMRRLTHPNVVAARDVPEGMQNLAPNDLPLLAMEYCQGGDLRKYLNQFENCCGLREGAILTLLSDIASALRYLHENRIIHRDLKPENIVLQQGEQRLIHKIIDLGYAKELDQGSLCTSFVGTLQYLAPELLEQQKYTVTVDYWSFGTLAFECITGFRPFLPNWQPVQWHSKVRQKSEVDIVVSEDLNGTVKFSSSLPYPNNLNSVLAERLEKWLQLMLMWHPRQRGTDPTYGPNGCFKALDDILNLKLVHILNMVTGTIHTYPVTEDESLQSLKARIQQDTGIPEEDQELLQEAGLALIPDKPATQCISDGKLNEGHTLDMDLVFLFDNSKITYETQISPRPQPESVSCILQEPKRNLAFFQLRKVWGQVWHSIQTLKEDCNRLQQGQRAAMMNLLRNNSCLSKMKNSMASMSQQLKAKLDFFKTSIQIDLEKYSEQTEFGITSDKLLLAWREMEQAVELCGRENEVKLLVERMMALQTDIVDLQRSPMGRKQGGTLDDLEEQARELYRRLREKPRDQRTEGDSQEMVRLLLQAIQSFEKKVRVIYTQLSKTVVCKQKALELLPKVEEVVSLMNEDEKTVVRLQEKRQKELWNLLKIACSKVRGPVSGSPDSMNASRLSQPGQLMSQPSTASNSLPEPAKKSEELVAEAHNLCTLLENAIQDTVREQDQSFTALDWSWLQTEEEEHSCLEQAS
Chain of TBK1 (human) (Q9UHD2 whole entry, looked up): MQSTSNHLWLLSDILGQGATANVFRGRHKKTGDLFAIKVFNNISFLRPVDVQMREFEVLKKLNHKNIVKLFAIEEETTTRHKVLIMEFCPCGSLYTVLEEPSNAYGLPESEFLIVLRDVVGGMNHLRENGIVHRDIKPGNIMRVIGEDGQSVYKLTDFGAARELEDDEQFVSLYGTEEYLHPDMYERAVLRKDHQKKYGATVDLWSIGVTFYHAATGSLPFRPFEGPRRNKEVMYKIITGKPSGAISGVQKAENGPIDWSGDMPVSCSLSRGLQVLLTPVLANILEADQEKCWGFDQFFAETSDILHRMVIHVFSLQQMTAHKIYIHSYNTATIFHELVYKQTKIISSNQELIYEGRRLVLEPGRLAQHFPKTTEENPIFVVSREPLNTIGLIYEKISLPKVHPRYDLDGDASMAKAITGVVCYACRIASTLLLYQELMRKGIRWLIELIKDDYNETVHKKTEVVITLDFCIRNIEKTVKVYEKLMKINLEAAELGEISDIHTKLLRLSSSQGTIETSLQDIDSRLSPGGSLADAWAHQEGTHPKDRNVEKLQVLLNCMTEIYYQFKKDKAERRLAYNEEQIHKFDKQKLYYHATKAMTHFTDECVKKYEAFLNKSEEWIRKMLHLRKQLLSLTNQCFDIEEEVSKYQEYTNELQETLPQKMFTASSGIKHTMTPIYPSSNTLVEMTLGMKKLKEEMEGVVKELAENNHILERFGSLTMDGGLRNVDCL
Chain of NEK6 (human) (Q9HC98 whole entry, looked up): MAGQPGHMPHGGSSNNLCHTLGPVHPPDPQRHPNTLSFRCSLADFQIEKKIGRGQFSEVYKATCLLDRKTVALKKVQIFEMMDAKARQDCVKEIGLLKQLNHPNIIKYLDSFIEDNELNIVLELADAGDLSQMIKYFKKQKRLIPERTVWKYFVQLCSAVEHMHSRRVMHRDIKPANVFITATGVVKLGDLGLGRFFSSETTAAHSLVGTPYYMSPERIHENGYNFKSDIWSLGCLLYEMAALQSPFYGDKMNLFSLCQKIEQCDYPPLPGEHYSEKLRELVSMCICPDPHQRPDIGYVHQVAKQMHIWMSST
Chain of PAK6 (human) (Q9NQU5 whole entry, looked up): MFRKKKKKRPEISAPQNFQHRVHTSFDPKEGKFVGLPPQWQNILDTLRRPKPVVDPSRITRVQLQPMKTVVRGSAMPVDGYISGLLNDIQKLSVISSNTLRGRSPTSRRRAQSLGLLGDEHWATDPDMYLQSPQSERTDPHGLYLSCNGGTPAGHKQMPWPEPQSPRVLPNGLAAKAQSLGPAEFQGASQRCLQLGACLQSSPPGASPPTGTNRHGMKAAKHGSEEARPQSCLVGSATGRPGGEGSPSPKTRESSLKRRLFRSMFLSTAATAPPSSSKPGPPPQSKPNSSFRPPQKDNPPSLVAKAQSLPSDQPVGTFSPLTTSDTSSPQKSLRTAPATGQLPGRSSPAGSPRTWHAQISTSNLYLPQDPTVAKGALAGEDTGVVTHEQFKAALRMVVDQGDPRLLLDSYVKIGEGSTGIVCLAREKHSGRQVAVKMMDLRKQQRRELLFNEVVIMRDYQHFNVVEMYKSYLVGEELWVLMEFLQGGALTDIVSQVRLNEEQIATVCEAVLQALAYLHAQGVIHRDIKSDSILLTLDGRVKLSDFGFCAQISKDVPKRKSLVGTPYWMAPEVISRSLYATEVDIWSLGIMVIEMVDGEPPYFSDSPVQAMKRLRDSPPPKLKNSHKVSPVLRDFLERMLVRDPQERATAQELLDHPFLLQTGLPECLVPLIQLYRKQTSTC
Chain of SRC (human) (P12931 whole entry, looked up): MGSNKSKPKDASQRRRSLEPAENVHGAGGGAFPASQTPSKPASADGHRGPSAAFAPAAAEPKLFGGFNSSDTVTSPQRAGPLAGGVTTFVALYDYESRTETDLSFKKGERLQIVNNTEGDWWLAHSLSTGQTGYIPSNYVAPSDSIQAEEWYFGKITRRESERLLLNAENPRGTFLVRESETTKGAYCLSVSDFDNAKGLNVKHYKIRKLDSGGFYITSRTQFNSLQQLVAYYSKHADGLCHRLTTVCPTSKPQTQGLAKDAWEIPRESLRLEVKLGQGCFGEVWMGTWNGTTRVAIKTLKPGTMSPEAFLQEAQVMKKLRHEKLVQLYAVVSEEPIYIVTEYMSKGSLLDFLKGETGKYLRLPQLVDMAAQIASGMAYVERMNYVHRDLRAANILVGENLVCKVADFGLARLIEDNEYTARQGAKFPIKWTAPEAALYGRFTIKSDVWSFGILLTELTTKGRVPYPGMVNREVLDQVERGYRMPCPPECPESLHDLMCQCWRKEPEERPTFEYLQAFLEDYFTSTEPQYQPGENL
Chain of TTK (human) (P33981 whole entry, looked up): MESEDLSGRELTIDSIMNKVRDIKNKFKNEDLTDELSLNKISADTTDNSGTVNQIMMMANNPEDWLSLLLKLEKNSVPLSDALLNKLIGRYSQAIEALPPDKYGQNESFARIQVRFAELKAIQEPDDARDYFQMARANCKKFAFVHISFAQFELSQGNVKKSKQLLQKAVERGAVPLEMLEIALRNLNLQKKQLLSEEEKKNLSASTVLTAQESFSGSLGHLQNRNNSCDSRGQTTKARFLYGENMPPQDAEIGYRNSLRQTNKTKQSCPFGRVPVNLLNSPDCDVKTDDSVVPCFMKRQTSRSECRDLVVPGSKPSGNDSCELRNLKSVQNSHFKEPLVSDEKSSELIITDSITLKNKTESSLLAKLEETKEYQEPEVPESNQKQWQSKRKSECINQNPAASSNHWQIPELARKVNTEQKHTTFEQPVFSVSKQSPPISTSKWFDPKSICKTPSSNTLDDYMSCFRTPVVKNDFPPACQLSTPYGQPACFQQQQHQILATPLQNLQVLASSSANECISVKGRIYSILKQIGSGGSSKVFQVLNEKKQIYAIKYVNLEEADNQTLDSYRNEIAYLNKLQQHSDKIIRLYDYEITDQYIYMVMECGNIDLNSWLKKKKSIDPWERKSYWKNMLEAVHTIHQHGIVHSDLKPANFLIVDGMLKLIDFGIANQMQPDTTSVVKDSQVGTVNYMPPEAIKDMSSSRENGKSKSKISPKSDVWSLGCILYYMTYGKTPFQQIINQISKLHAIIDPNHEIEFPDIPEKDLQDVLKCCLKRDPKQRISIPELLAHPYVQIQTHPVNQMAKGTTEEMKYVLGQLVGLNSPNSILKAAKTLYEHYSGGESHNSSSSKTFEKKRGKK

CC(=O)Nc1nc2cnc(-c3ccccc3)cn2n1
inhibition (MAPKAPK2 (human)): 7% | inhibition (DYRK1A (human)): 43% | inhibition [1]: 14% | inhibition (AURKA (human)): 13% | inhibition [2]: 5% | inhibition (MAP3K5 (human)): 25% | inhibition (ROCK2 (rat)): 25% | inhibition (DYRK3 (human)): 69% | inhibition (TTK (human)): 4% | inhibition (MAP2K6 (human)): 0% | inhibition (LCK (mouse)): 29% | inhibition (PKN2 (human)): 13% | inhibition (DYRK2 (human)): 30% | inhibition (PRKCZ (human)): 11% | inhibition (RPS6KA3 KD1 KD2 (human)): 9% | inhibition (IKBKB (human)): 10% | inhibition (INSRR (human)): 60% | inhibition (NEK6 (human)): 21% | inhibition (EPHB1 (human)): 22% | inhibition (PAK4 (human)): 47% | inhibition (PAK6 (human)): 18% | inhibition (CHEK2 (human)): 25% | inhibition (MAP3K1 (human)): 9% | inhibition (MAPK15 (human)): 88% | inhibition (GCK (human)): 39% | inhibition (GSK3B (human)): 73% | inhibition (BRSK2 (human)): 20% | inhibition (MAPK14 (human)): 10% | inhibition (SRC (human)): 18% | inhibition (PRKACA (human)): 0% | inhibition (TBK1 (human)): 31% | inhibition (MAP2K2 (human)): 6% | inhibition (CSNK2A1 (human)): 11% | inhibition (ERBB4 (human)): 19% | inhibition (CDK2 CCNA2 (human)): 34% | inhibition [3]: 0% | inhibition (MKNK1 (human)): 53% | inhibition (CHEK1 (human)): 18%

COc1ccc(NC(=S)Nc2cnc3[nH]cnn3c2=O)cn1
inhibition (MAPKAPK2 (human)): 26% | inhibition (DYRK1A (human)): 10% | inhibition [1]: 0% | inhibition (AURKA (human)): 23% | inhibition [2]: 0% | inhibition (MAP3K5 (human)): 16% | inhibition (ROCK2 (rat)): 7% | inhibition (DYRK3 (human)): 20% | inhibition (TTK (human)): 0% | inhibition (MAP2K6 (human)): 0% | inhibition (LCK (mouse)): 0% | inhibition (PKN2 (human)): 1% | inhibition (DYRK2 (human)): 27% | inhibition (PRKCZ (human)): 0% | inhibition (RPS6KA3 KD1 KD2 (human)): 47% | inhibition (IKBKB (human)): 0% | inhibition (INSRR (human)): 0% | inhibition (NEK6 (human)): 3% | inhibition (EPHB1 (human)): 1% | inhibition (PAK4 (human)): 15% | inhibition (PAK6 (human)): 0% | inhibition (CHEK2 (human)): 14% | inhibition (MAP3K1 (human)): 0% | inhibition (MAPK15 (human)): 8% | inhibition (GCK (human)): 0% | inhibition (GSK3B (human)): 2% | inhibition (BRSK2 (human)): 34% | inhibition (MAPK14 (human)): 0% | inhibition (SRC (human)): 38% | inhibition (PRKACA (human)): 0% and 14% | inhibition (TBK1 (human)): 7% | inhibition (MAP2K2 (human)): 0% | inhibition (CSNK2A1 (human)): 28% | inhibition (ERBB4 (human)): 31% | inhibition (CDK2 CCNA2 (human)): 0% | inhibition [3]: 17% | inhibition (MKNK1 (human)): 3% | inhibition (CHEK1 (human)): 0%

CC(=O)Nc1nc2cnc(-c3c(C)cccc3C)cn2n1
inhibition (MAPKAPK2 (human)): 0% | inhibition (DYRK1A (human)): 0% | inhibition [1]: 0% | inhibition (AURKA (human)): 10% | inhibition [2]: 0% | inhibition (MAP3K5 (human)): 0% | inhibition (ROCK2 (rat)): 0% | inhibition (DYRK3 (human)): 12% | inhibition (TTK (human)): 0% | inhibition (MAP2K6 (human)): 0% | inhibition (LCK (mouse)): 0% | inhibition (PKN2 (human)): 0% | inhibition (DYRK2 (human)): 0% | inhibition (PRKCZ (human)): 0% | inhibition (RPS6KA3 KD1 KD2 (human)): 23% | inhibition (IKBKB (human)): 0% | inhibition (INSRR (human)): 0% | inhibition (NEK6 (human)): 0% | inhibition (EPHB1 (human)): 0% | inhibition (PAK4 (human)): 0% | inhibition (PAK6 (human)): 0% | inhibition (CHEK2 (human)): 0% | inhibition (MAP3K1 (human)): 0% | inhibition (MAPK15 (human)): 7% | inhibition (GCK (human)): 0% | inhibition (GSK3B (human)): 8% | inhibition (BRSK2 (human)): 11% | inhibition (MAPK14 (human)): 0% | inhibition (SRC (human)): 0% | inhibition (PRKACA (human)): 0% and 1% | inhibition (TBK1 (human)): 15% | inhibition (MAP2K2 (human)): 0% | inhibition (CSNK2A1 (human)): 0% | inhibition (ERBB4 (human)): 9% | inhibition (CDK2 CCNA2 (human)): 0% | inhibition [3]: 0% | inhibition (MKNK1 (human)): 0% | inhibition (CHEK1 (human)): 0%

COc1ccc(-c2cc3c(=O)[nH]cnc3s2)cc1OC
inhibition (MAPKAPK2 (human)): 8% | inhibition (DYRK1A (human)): 36% | inhibition [1]: 0% | inhibition (AURKA (human)): 1% | inhibition [2]: 30% | inhibition (MAP3K5 (human)): 19% | inhibition (ROCK2 (rat)): 19% | inhibition (DYRK3 (human)): 36% | inhibition (TTK (human)): 25% | inhibition (MAP2K6 (human)): 18% | inhibition (LCK (mouse)): 29% | inhibition (PKN2 (human)): 0% | inhibition (DYRK2 (human)): 56% | inhibition (PRKCZ (human)): 0% | inhibition (RPS6KA3 KD1 KD2 (human)): 52% | inhibition (IKBKB (human)): 29% | inhibition (INSRR (human)): 0% | inhibition (NEK6 (human)): 60% | inhibition (EPHB1 (human)): 4% | inhibition (PAK4 (human)): 30% | inhibition (PAK6 (human)): 0% | inhibition (CHEK2 (human)): 38% | inhibition (MAP3K1 (human)): 0% | inhibition (MAPK15 (human)): 18% | inhibition (GCK (human)): 0% | inhibition (GSK3B (human)): 62% | inhibition (BRSK2 (human)): 9% | inhibition (MAPK14 (human)): 0% | inhibition (SRC (human)): 0% | inhibition (PRKACA (human)): 34% and 38% | inhibition (TBK1 (human)): 3% | inhibition (MAP2K2 (human)): 0% | inhibition (CSNK2A1 (human)): 31% | inhibition (ERBB4 (human)): 17% | inhibition (CDK2 CCNA2 (human)): 0% | inhibition [3]: 0% | inhibition (MKNK1 (human)): 5% | inhibition (CHEK1 (human)): 0%
